Source: PubChem BioAssay AID248 (DTP/NCI, 2004)
Values joined by “and” are separate entries in the source; they are usually repeats but may differ in a detail not shown here. Identical values can stand only once. Toxic doses and inconclusive results are not listed. No stated cut-off is given here; in the data, active means T/C of 150% or more; inactive means T/C below 125%.

System: L1210 leukemia ip in BDF1 mice, survival T/C
Experiment: NCI In Vivo Anticancer Drug Screen. Data for tumor model L1210 Leukemia (intraperitoneal) in B6D2F1 (BDF1) mice
Details: endpoint: mean survival time, higher = longer survival
Summary of the method: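 Read-out is survival time, reported as the treated-group measurement over the vehicle-control measurement.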

[1] = dose: 12.5 mg/kg/injection, schedule: Q01DX009 (ip), vehicle: saline with Tween-80
[2] = dose: 25.0 mg/kg/injection, schedule: Q01DX009 (ip), vehicle: saline with Tween-80
[3] = dose: 50.0 mg/kg/injection, schedule: Q01DX009 (ip), vehicle: saline with Tween-80
[4] = dose: 100.0 mg/kg/injection, schedule: Q01DX001 (ip), vehicle: Klucel (hydroxypropylcellulose) (HPC)
[5] = dose: 100.0 mg/kg/injection, schedule: Q04DX003 (ip), vehicle: Klucel (hydroxypropylcellulose) (HPC)
[6] = dose: 200.0 mg/kg/injection, schedule: Q01DX001 (ip), vehicle: Klucel (hydroxypropylcellulose) (HPC)
[7] = dose: 200.0 mg/kg/injection, schedule: Q04DX003 (ip), vehicle: Klucel (hydroxypropylcellulose) (HPC)
[8] = dose: 400.0 mg/kg/injection, schedule: Q01DX001 (ip), vehicle: Klucel (hydroxypropylcellulose) (HPC)
[9] = dose: 400.0 mg/kg/injection, schedule: Q04DX003 (ip), vehicle: Klucel (hydroxypropylcellulose) (HPC)
[10] = dose: 100.0 mg/kg/injection, schedule: Q04DX002 (ip), vehicle: saline
[11] = dose: 200.0 mg/kg/injection, schedule: Q04DX002 (ip), vehicle: saline
[12] = dose: 100.0 mg/kg/injection, schedule: Q04DX002 (ip), vehicle: Klucel (hydroxypropylcellulose) (HPC)
[13] = dose: 100.0 mg/kg/injection, schedule: Q01DX009 (ip), vehicle: Klucel (hydroxypropylcellulose) (HPC)
[14] = dose: 200.0 mg/kg/injection, schedule: Q01DX009 (ip), vehicle: Klucel (hydroxypropylcellulose) (HPC)
[15] = dose: 100.0 mg/kg/injection, schedule: Q04DX003 (ip), vehicle: saline sonified
[16] = dose: 200.0 mg/kg/injection, schedule: Q04DX003 (ip), vehicle: saline sonified
[17] = dose: 400.0 mg/kg/injection, schedule: Q04DX003 (ip), vehicle: saline sonified
[18] = dose: 100.0 mg/kg/injection, schedule: Q01DX009 (ip), vehicle: saline with Tween-80
[19] = dose: 100.0 mg/kg/injection, schedule: Q04DX002 (ip), vehicle: gum acacia
[20] = dose: 200.0 mg/kg/injection, schedule: Q04DX002 (ip), vehicle: gum acacia
[21] = dose: 400.0 mg/kg/injection, schedule: Q04DX002 (ip), vehicle: gum acacia

Measured: T/C

N#CC(Nc1ccccc1)C1CC1c1ccccc1 (stereo not given)
inactive: [1] 94 % of control | dose: 12.5 mg/kg/injection, schedule: Q04DX003 (ip), vehicle: saline with Tween-80 98 % of control | [2] 100 % of control | dose: 25.0 mg/kg/injection, schedule: Q04DX003 (ip), vehicle: saline with Tween-80 102 % of control | [3] 95 % of control | dose: 50.0 mg/kg/injection, schedule: Q04DX003 (ip), vehicle: saline with Tween-80 101 % of control

CCN1CCCC(OC(=O)c2cccc3[nH]ccc23)C1 (stereo not given)
inactive: [4] 93 % of control | [5] 103 % of control | [6] 97 % of control | [7] 101 % of control | [8] 98 % of control | [9] 101 % of control

CC(C)(C)S(=O)CCO (stereo not given)
inactive: [10] 109 % of control | [11] 103 % of control | dose: 400.0 mg/kg/injection, schedule: Q04DX002 (ip), vehicle: saline 103 % of control

O=S(=O)(O)c1ccc(CCCCCCCl)cc1
inactive: [10] 93 % of control | [11] 87 % of control

C=C1c2c(Cl)cccc2C(C)(CC)c2cccc(Cl)c21
inactive: dose: 75.0 mg/kg/injection, schedule: Q01DX001 (ip), vehicle: Klucel (hydroxypropylcellulose) (HPC) 96 % of control | dose: 75.0 mg/kg/injection, schedule: Q01DX009 (ip), vehicle: Klucel (hydroxypropylcellulose) (HPC) 94 % of control | dose: 150.0 mg/kg/injection, schedule: Q01DX001 (ip), vehicle: Klucel (hydroxypropylcellulose) (HPC) 98 % of control | dose: 150.0 mg/kg/injection, schedule: Q01DX009 (ip), vehicle: Klucel (hydroxypropylcellulose) (HPC) 96 % of control | dose: 300.0 mg/kg/injection, schedule: Q01DX001 (ip), vehicle: Klucel (hydroxypropylcellulose) (HPC) 95 % of control | dose: 300.0 mg/kg/injection, schedule: Q01DX009 (ip), vehicle: Klucel (hydroxypropylcellulose) (HPC) 99 % of control

COc1ccc(NC(=S)Nc2ccccc2)c(Cl)c1
inactive: [12] 105 % of control | dose: 200.0 mg/kg/injection, schedule: Q04DX002 (ip), vehicle: Klucel (hydroxypropylcellulose) (HPC) 97 % of control | dose: 400.0 mg/kg/injection, schedule: Q04DX002 (ip), vehicle: Klucel (hydroxypropylcellulose) (HPC) 108 % of control

O=C(NCCc1ccccc1)C(Cl)Cl
inactive: dose: 50.0 mg/kg/injection, schedule: Q01DX009 (ip), vehicle: Klucel (hydroxypropylcellulose) (HPC) 93 % of control | [13] 93 % of control | [5] 103 % of control | [14] 94 % of control | [7] 95 % of control | [9] 101 % of control

Cc1c(Cl)c(C)c(Cl)c(CCl)c1Cl
inactive: dose: 100.0 mg/kg/injection, schedule: Q01DX009 (ip), vehicle: saline sonified 100 % of control | [5] 97 % of control | dose: 200.0 mg/kg/injection, schedule: Q01DX009 (ip), vehicle: saline sonified 95 % of control | [7] 89 % of control | dose: 400.0 mg/kg/injection, schedule: Q01DX009 (ip), vehicle: saline sonified 91 % of control | [9] 92 % of control

O=C1/C(=C/c2ccc(Cl)cc2)CCc2ccccc21
inactive: dose: 100.0 mg/kg/injection, schedule: Q01DX001 (ip), vehicle: saline 101 % of control | dose: 100.0 mg/kg/injection, schedule: Q01DX009 (ip), vehicle: saline 97 % of control | dose: 200.0 mg/kg/injection, schedule: Q01DX001 (ip), vehicle: saline 101 % of control | dose: 200.0 mg/kg/injection, schedule: Q01DX009 (ip), vehicle: saline 96 % of control | dose: 400.0 mg/kg/injection, schedule: Q01DX001 (ip), vehicle: saline 97 % of control | dose: 400.0 mg/kg/injection, schedule: Q01DX009 (ip), vehicle: saline 86 % of control

CCOC(=O)C(CC(=O)O)C1=CCCc2ccccc21 (stereo not given)
inactive: [4] 96 % of control | [13] 90 % of control | [6] 104 % of control | [14] 91 % of control | [8] 90 % of control | dose: 400.0 mg/kg/injection, schedule: Q01DX009 (ip), vehicle: Klucel (hydroxypropylcellulose) (HPC) 90 % of control

O=C1OCCO1
inactive: [15] 95 % of control | [16] 101 % of control | [17] 101 % of control

CCCCCCCCCCCCSC1=C(Cl)C(=O)C(OC)=C(OC)C1=O
inactive: dose: 3.12 mg/kg/injection, schedule: Q01DX009 (ip), vehicle: saline with Tween-80 100 % of control | dose: 6.25 mg/kg/injection, schedule: Q01DX009 (ip), vehicle: saline with Tween-80 93 % of control | [1] 94 % of control | [2] 96 % of control | [3] 100 % of control | [18] 94 % of control

Cc1cc(C)c(CSC(=N)N)c(C)c1
inactive: dose: 25.0 mg/kg/injection, schedule: Q04DX002 (ip), vehicle: Klucel (hydroxypropylcellulose) (HPC) 88 % of control | dose: 50.0 mg/kg/injection, schedule: Q04DX002 (ip), vehicle: Klucel (hydroxypropylcellulose) (HPC) 92 % of control | [12] 100 % of control and 89 % of control

CCc1ccc(N=Nc2ccc(CC)cc2)cc1
inactive: dose: 100.0 mg/kg/injection, schedule: Q01DX001 (ip), vehicle: carboxymethylcellulose (CMC) 98 % of control | dose: 200.0 mg/kg/injection, schedule: Q01DX001 (ip), vehicle: carboxymethylcellulose (CMC) 106 % of control | dose: 400.0 mg/kg/injection, schedule: Q01DX001 (ip), vehicle: carboxymethylcellulose (CMC) 101 % of control

CCCCC(CC)CSCC(CC)CCCC (stereo not given)
inactive: [15] 97 % of control | [16] 93 % of control | [17] 97 % of control

O=C1C(Cl)=C(Cl)C(=O)N1CCCCCCN1C(=O)C(Cl)=C(Cl)C1=O
inactive: [5] 92 % of control | [7] 87 % of control | [9] 92 % of control

CCOC(=O)CCC(NC(=O)c1cccc(N(C)C=O)c1)C(=O)OCC (stereo not given)
inactive: [3] 100 % of control | [18] 92 % of control | dose: 200.0 mg/kg/injection, schedule: Q01DX009 (ip), vehicle: saline with Tween-80 93 % of control

CCC(C)(C(=O)NO)c1ccccc1 (stereo not given)
inactive: dose: 100.0 mg/kg/injection, schedule: Q01DX001 (ip), vehicle: saline with Tween-80 110 % of control | dose: 200.0 mg/kg/injection, schedule: Q01DX001 (ip), vehicle: saline with Tween-80 101 % of control

O=C(COc1ccc(Cl)cc1Cl)Nc1ccc(Br)cc1
inactive: [19] 103 % of control | [20] 92 % of control | [21] 89 % of control

O=CNNC(=O)c1cccc([N+](=O)[O-])c1
inactive: dose: 100.0 mg/kg/injection, schedule: Q01DX001 (ip), vehicle: other 95 % of control | dose: 100.0 mg/kg/injection, schedule: Q04DX003 (ip), vehicle: other 97 % of control | dose: 200.0 mg/kg/injection, schedule: Q01DX001 (ip), vehicle: other 101 % of control | dose: 200.0 mg/kg/injection, schedule: Q04DX003 (ip), vehicle: other 95 % of control | dose: 400.0 mg/kg/injection, schedule: Q01DX001 (ip), vehicle: other 92 % of control

O=C(Nc1ccc(Cl)cc1C(F)(F)F)Sc1ccc(Cl)cc1
inactive: dose: 100.0 mg/kg/injection, schedule: Q01DX001 (ip), vehicle: gum acacia 103 % of control and 104 % of control | dose: 100.0 mg/kg/injection, schedule: Q01DX009 (ip), vehicle: gum acacia 92 % of control | [19] 99 % of control and 88 % of control | dose: 100.0 mg/kg/injection, schedule: Q04DX003 (ip), vehicle: gum acacia 92 % of control and 87 % of control | dose: 200.0 mg/kg/injection, schedule: Q01DX001 (ip), vehicle: gum acacia 98 % of control and 103 % of control | dose: 200.0 mg/kg/injection, schedule: Q01DX009 (ip), vehicle: gum acacia 90 % of control | [20] 101 % of control and 102 % of control | dose: 200.0 mg/kg/injection, schedule: Q04DX003 (ip), vehicle: gum acacia 92 % of control and 109 % of control | dose: 400.0 mg/kg/injection, schedule: Q01DX001 (ip), vehicle: gum acacia 100 % of control and 103 % of control | [21] 97 % of control and 89 % of control | dose: 400.0 mg/kg/injection, schedule: Q04DX003 (ip), vehicle: gum acacia 97 % of control and 90 % of control
